For experiment [1], the target named is T1, KMT9 (Homo sapiens, UniProt Q9Y5N5).
T1 sequence (Q9Y5N5 1-214): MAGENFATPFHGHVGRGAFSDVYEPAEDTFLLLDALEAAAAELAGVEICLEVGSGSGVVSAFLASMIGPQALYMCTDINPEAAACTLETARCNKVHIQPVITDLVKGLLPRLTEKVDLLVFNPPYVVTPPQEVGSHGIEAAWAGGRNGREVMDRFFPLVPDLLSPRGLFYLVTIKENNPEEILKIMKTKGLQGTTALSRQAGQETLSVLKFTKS
T1 sequence (Q9UI30 1-120 isoform Q9UI30-2 partner): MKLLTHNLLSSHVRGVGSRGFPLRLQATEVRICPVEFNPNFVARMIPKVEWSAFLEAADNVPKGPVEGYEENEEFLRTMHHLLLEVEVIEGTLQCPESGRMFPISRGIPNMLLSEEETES
Description: Microscale thermophoresis (MST) KMT9 binding. Conditions: His-tag labelled KMT9 20 nM. The procedure, abridged:
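His-tagged KMT9 (20 nM), RED-Tris-NTA labelled, titrated with varying compound concentrations in 25 mM HEPES pH 7.5, 100 mM NaCl, 1 mM DTT, 0.05% Tween. MST at 40% MST and 100% LED power, Nano-RED excitation; Kd binned A ≤10 nM, B 10–100, C 100–1000, D >1000 nM.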
Background: MST reads how a fluorescent partner responds to local heating, with and without ligand.

The target in experiment [2] is T1, KMT9. Nature of the experiment: KMT9 thermal shift assay (SyproOrange). The class given is binding. Conditions: 2 μM KMT9. The procedure, abridged:
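Recombinant KMT9 was incubated with compound and SyproOrange at 25° C in 50 mM BTP pH 8.5, 1 mM MgCl2, 1 mM DTT. It was then heated from 20° C to 95° C at 1° C per 15 s with fluorescence read each step. Tm came from a Boltzmann sigmoidal fit; ΔTm relative to DMSO control, binned in 5 K ranges.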

In experiment [3] the target is T1, KMT9. Nature of the experiment: KMT9 methyltransferase inhibition assay, MTaseGlo luminescence (from entry 155). It counts as biochemical. The conditions noted are these: 100 nM KMT9, 5 μM ETF1, 1 μM SAM. How it is done: For the compounds from entry 155 on in Table 1, the following procedure was used to determine IC50 values: The assay was carried out in white, opaque 384-well OptiPlates (PerkinElmer). For IC50 determination, a 2.5x substrate mix (final assay concentrations: 5 μM ETF1, 1 μM SAM and 1x MTaseGlo Reagent), a 2.5x KMT9 solution (final assay concentration 100 nM) and a 5x inhibitor stock 1:1 dilution series (concentration according to the desired range; dilution series was prepared in assay buffer containing 10% DMSO to obtain a final DMSO concentration of 2% in the assay) were prepared. 2 μL of 5x inhibitor stock and 4 μL of 2.5x KMT9 were pipetted, the plate was spun down at 700 rpm for 1 min using a Hettich UNIVERSAL 320 centrifuge and incubated at room temperature (around 25° C.) for 15 min. The reaction was initiated by adding 4 μL of 2.5x substrate mix, the plate was spun down as described before and incubated at 30° C. for 2 h. Afterwards, 10 μL of 2× MTaseGlo Detection solution was added, the plate was centrifuged as described above and incubated for 60 min at room temperature. Luminescence was measured using a PerkinElmer EnVision 2102 Multilabel Reader. Calculation of inhibition and data fitting was carried out as for entries 1-154. described above.
For the results of the methyltransferase inhibition assay shown as “Inhibition” in Table 1, “I” represents an IC50 less than 0.1 μM, “II” represents an IC50 equal or higher than 0.1 μM and less than 1 μM, “III” represents an IC50 equal or higher than 1 µM and less than 10 µM and “IV” represents an IC50 equal or higher than 10 µM

Where [4] appears, read: 500 µM compound, read-out: Thermal shift (ΔTm).
[5] abbreviates: MTaseGlo procedure (entries from 155), read-out: Inhibition (IC50).
Where [6] appears, read: ΔTm class, 500 uM compound, read-out: Thermal shift.
Setting [7] is: IC50 class, MTaseGlo procedure (entries from 155 on), read-out: Inhibition.

In US20250188110A1, “SPECIFIC SMALL MOLECULE INHIBITORS THAT BLOCK KMT9 METHYLTRANSFERASE ACTIVITY AND FUNCTION” (ALBERT-LUDWIGS-UNIVERSITÄT FREIBURG, priority 2021, published 2025) one finds Kd, ΔTm and IC50 data, which are given here for eight molecules.

Read-outs that look alike come from different tables or passages of the source. A value given as a limit tells only on which side of the number the result lay.

Take `CN(CCCNCCc1ccc(F)cc1)C[C@H]1C[C@@H](n2cc(-c3ccccc3)c3c(N)nc(Cl)nc32)[C@H](O)[C@@H]1O` [Compound 575, (1R,2S,3R,5R)-3-(4-amino-2-chloro-5-phenyl-7H-pyrrolo[2,3-d]pyrimidin-7-yl)-5-(((3-((4-fluorophenethyl)amino)propyl)(methyl)amino)methyl)cyclopentane-1,2-diol]: on KMT9 [1] (read-out: MST (Kd)), the Kd is at most 10 nM. Further, the ΔTm at 500 µM on KMT9 [2] (setting [4]) lay within 15 to 20 °C. At KMT9 [3] (setting [5]), the IC50 was 100 to 1000 nM.
On to `CN(CCCNCCc1ccc(F)cc1)C[C@H]1C[C@@H](n2cc(-c3ccn(C)n3)c3c(N)nc(Cl)nc32)[C@H](O)[C@@H]1O` [Compound 645, (1R,2S,3R,5R)-3-[4-Amino-2-chloro-5-(1-methylpyrazol-3-yl)pyrrolo[2,3-d]pyrimidin-7-yl]-5-{[(3-{[2-(4-fluorophenyl)ethyl]amino}propyl)(methyl)amino]methyl}cyclopentane-1,2-diol], for which, on KMT9 [1] (read-out: MST (Kd)), the Kd was 10 to 100 nM. Besides, at KMT9 [2] (setting [4]), the ΔTm at 500 µM was above 20 °C. For the same molecule, the IC50 on KMT9 [3] (setting [5]) was 100 to 1000 nM.
Take `COc1cc(OC)cc([C@H]2C[C@@H](n3cc(-c4ccn(Cc5ccccc5)n4)c4c(N)nc(Cl)nc43)[C@H](O)[C@@H]2O)c1` [Compound 679, (1R,2S,3R,5R)-3-[4-amino-5-(1-benzylpyrazol-3-yl)-2-chloropyrrolo[2,3-d]pyrimidin-7-yl]-5-(3,5-dimethoxyphenyl)cyclopentane-1,2-diol]: the Kd at KMT9 [1] (read-out: MST (Kd)) was 100 to 1000 nM. For the same molecule, the ΔTm at 500 µM on KMT9 [2] (setting [4]) is at most 10 °C. In addition, the IC50 at KMT9 [3] (setting [5]) was in the range of 1000 to 10000 nM.
Taken in the same sequence, the figures for `Nc1nc(Cl)nc2c1c(-c1nc(Cc3ccccc3)cs1)cn2[C@@H]1C[C@H](C2CCN(CCF)CC2)[C@@H](O)[C@H]1O` [Compound 508, (1R,2S,3R)-3-[4-amino-5-(4-benzyl-1,3-thiazol-2-yl)-2-chloropyrrolo[2,3-d]pyrimidin-7-yl]-5-[1-(2-fluoroethyl)piperidin-4-yl]cyclopentane-1,2-diol] were at most 10 nM, 15 to 20 °C and 100 to 1000 nM.
Turning to `O[C@@H]1[C@H](O)[C@@H](C2=CCCN(C3CC3)C2)C[C@H]1n1cc(-c2nc(Cc3ccccc3)cs2)c2cnc(Cl)nc21` [Compound 587, (1R,2S,3R,5R)-3-[5-(4-Benzyl-1,3-thiazol-2-yl)-2-chloropyrrolo[2,3-d]pyrimidin-7-yl]-5-(1-cyclopropyl-5,6-dihydro-2H-pyridin-3-yl)cyclopentane-1,2-diol], at KMT9 [1] (Kd class, read-out: MST), the Kd is above 1000 nM. In addition, at KMT9 [2] (setting [6]), the ΔTm at 500 µM is at most 10 °C. Further, at KMT9 [3] (setting [7]), the IC50 is above 10000 nM.
As for `NCCc1cccc([C@H]2C[C@@H](n3ccc4c(N)ncnc43)[C@H](O)[C@@H]2O)c1` [Compound 592, (1S,2R,3R,5R)-3-[3-(2-Aminoethyl)phenyl]-5-{4-aminopyrrolo[2,3-d]pyrimidin-7-yl}cyclopentane-1,2-diol], the Kd at KMT9 [1] (read-out: MST (Kd)) was above 1000 nM. The ΔTm at 500 µM on KMT9 [2] (setting [4]) is at most 10 °C. Further, the IC50 at KMT9 [3] (setting [5]) was in the range of 1000 to 10000 nM.
`Nc1nc(Cl)nc2c1ccn2[C@@H]1C[C@H](c2cccc(OC(F)F)c2)[C@@H](O)[C@H]1O` [Compound 676, (1R,2S,3R,5R)-3-{4-amino-2-chloropyrrolo[2,3-d]pyrimidin-7-yl}-5-[3-(difluoromethoxy)phenyl]cyclopentane-1,2-diol]: on KMT9 [1] (read-out: MST (Kd)), the Kd lay within 10 to 100 nM. In addition, the ΔTm at 500 µM on KMT9 [2] (setting [4]) was at most 10 °C. Also, the IC50 on KMT9 [3] (setting [5]) was in the range of 1000 to 10000 nM.
`O[C@@H]1[C@H](O)[C@@H](C2CCCN(CCc3ccccc3)C2)C[C@H]1n1cc(-c2nc(Cc3ccccc3)cs2)c2cnc(Cl)nc21` (stereo partly drawn) [Compound 518, (1R,2S,3R,5R)-3-(5-(4-benzylthiazol-2-yl)-2-chloro-7H-pyrrolo[2,3-d]pyrimidin-7-yl)-5-(1-phenethylpiperidin-3-yl)cyclopentane-1,2-diol]: the Kd on KMT9 [1] (Kd class, read-out: MST) is above 1000 nM. Further, the ΔTm at 500 µM at KMT9 [2] (setting [6]) is at most 10 °C. Besides, on KMT9 [3] (setting [7]), the IC50 is above 10000 nM.
